Measured values: PMC4020785 (PLoS ONE, 2014)

Key:
[1] = test system: HIV-1 clone NL4.3 (subtype B); assay: HIV-1 NL4.3 (subtype B) infection of MT-4 cells, Cell Titer Blue readout; assay type: cell-based
Method: (§1) Human PMBCs were incubated with 100 U recombinant IL-2 (Sigma-Aldrich) and 5 µg/mL phytohemagglutinin-P (PHA-P) (Difco) for 5 days at 37°C. MT-4 cells (1×10^6) or treated PBMCs (1.2×10^8) were infected with HIV-1 clone NL-4.3 or ZM247Fv-1 (MOI of 0.001) by spinoculation (1200 g at room temperature for 2 h). Uninfected cells were used as negative control and were also subjected to the spinoculation process. After spinoculation, supernatants were discarded and cells were resuspended in 10 mL of R10. Cells from each condition were then added to wells (96-well plate) containing serial dilutions of each ISD. For MT-4 cells, each dilution was done in sextuplicates and, for PBMCs, in triplicates. Cells were also incubated with different concentrations of ZDV as positive control. After 5 days in culture, Cell Titer Blue was added to each well and cells were incubated for additional 24 h. The median effective concentration for each drug is defined as EC50. In parallel with the infectivity assay, the same cell types were treated with different concentrations of drugs to determine their cytotoxicity, following the protocol described above. Drug concentration that results in a 50% decrease in viable cells is defined as the CC50 for each compound. EC50 was calculated according to Spearman-Karber and therapeutic index was defined by the ratio between CC50 and EC50 [55].
(§2) All statistical analyses were performed using program GraphPism version 6.0. Titrations for TCID50 infectivity were calculated by the Spearman-Karber method. Dose response curves to ISDs with HIV-1 subtype B and C were done using non-linear regression and were fit to the Hill equation.

[2] = test system: HIV-1 clone ZM247Fv-1 (subtype C); assay: HIV-1 ZM247Fv-1 (subtype C) infection of MT-4 cells, Cell Titer Blue readout; assay type: cell-based
Method: as §1, §2

[3] = test system: HIV-1 clone ZM247Fv-1 (subtype C); assay: HIV-1 ZM247Fv-1 (subtype C) infection of human PBMCs, Cell Titer Blue readout; assay type: cell-based
Method: as §1, §2

[4] = Cytotoxicity (CC50) in MT-4 cells; assay type: cell-based; conditions: human, Subtype B (X4)
Method: Cytotoxicity of ISDs was evaluated in J-Lat (clones 9.2 and 10.6) and PHA-activated human PBMCs. Cells were added to wells in a 96-well plate in the presence of various concentrations of ISDs, PMA or prostratin in sextuplicates for 24 and 72 h. Cell viability was determined using the CellTiter-blue fluorescence Cell Viability Assay (Promega) following the manufacturer's instruction.
as §1

[5] = test system: CD4, CXCR4, CCR5 on CD4+ T lymphocytes; assay: Surface CD4, CXCR4, CCR5 expression in CD4+ T lymphocytes (cytometry); assay type: cell-based, human; conditions: cells from three donors, different concentrations, 24 h
Method: For analysis of cell surface marker expression, MT-4 cells and bead-selected CD4+ T cells (described above) were incubated with 1 µM of each compound (ING-A, ING-B, ING-C, prostratin, PMA, and bryostatin-1) at 37°C for 48 h. After incubation, cells were washed with PBS and incubated for 20 min at room temperature with antibodies against CD3-Brilliant Violet 510 (clone OKT3 – Biolegend), CD4-Qdot 655 (clone 53.5 - Life Technologies), CXCR4-PE (clone 1265 - BD Biosciences), CCR5-PerCP-Cy5.5 (clone 3A9 - BD Biosciences), CD69-Pacific Blue (clone FN50 – BD Biosciences), CD38-FITC (clone AT-1 – Stem Cell Technologies), CD25-APC (clone 2A3 – BD Biosciences), HLA-DR-Qdot 605 (clone TÜ36 – Life Technologies) and a marker for annexin V-FITC (Life Technologies). Cells (both MT-4 cells and CD4+ T cells) were initially incubated for 2 h with different PKC inhibitors (GÖ6983, GÖ6976 or RO-31-8220). Then, ING-B, prostratin or PMA at 1 µM or TNF-α at 10 ng/mL were added to each condition and incubation was carried out for 24 h at 37°C. Similar protocol was used for the analysis of PKC inhibitors in J-Lat clones 9.2 and 10.6. GFP expression, surface marker expression and activation marker were evaluated on a LSR Fortessa cytometer (BD Biosciences). Data analysis was performed using FlowJo software (Tree Star).

HIV-1 NL4.3-Luc = assay: Luciferase expression in CD4+ T cells pre-treated and infected with NL4.3-Luc; assay type: cell-based; conditions: cells pre-treated 24 h, infected with NL4.3-Luc MOI 0.1
Method: CD4+ T cells were isolated by negative selection from human PBMCs (2.5×10^8 cells) using magnetic beads (Miltenyi) and incubated with 5 µg/mL PHA-P and 100 U IL-2 for 5 days. Cells were then seeded in 6-well plates (10^6 cells per well) and treated with different concentrations of ING-B. After 24 h, cells were infected with HIV-1 NL-Luc (MOI of 0.1) by spinoculation. Infected cells were kept at 37°C for 24 h and then collected for luciferase activity evaluation as described above.

human PBMCs = assay: Cellular proliferation assay (CFSE) in human PBMCs; assay type: cell-based; conditions: CFSE-stained human PBMC, 1, 5 or 10 µM, 8 days
Method: Human PBMCs were stained with CFSE following manufacturer's instructions (Sigma-Aldrich). After staining, cells were washed twice in PBS and incubated with ING-B (1, 5 or 10 µM), 5 µg/mL PHA-P plus 10 U/mL IL-2 (as positive control), or DMSO 1% (as negative control). Cell proliferation was assessed for 8 days after stimulation, and relative proliferation index was calculated for all conditions.

[6] = Human immunodeficiency virus 1, MT4

CCCCCC(=O)O[C@H]1C(C)=C[C@]23C(=O)[C@@H](C=C(CO)[C@@H](O)[C@]12O)[C@H]1[C@@H](C[C@H]3C)C1(C)C [ING-B, ingenol-3-hexanoate]
EC50 [1, 6]: 22 nM
TI (CC50/EC50) ([1]; MT-4 cells, Subtype B (X4)): 1272
EC50 [2, 6]: 25 nM
TI (CC50/EC50) ([2]; MT-4 cells, Subtype C (R5)): 1120
TI (CC50/EC50) ([3]; Human PBMC, Subtype C (R5)): 851
EC50 ([3]; Human immunodeficiency virus 1, PBMC): 47 nM
CC50 at 5 days [4]: 28 µM
downregulation of CD4, CCR5 and CXCR4, dose dependence [5]: dose dependent
levels of HIV-driven luciferase (HIV-1 NL4.3-Luc): dramatically reduced
cell proliferation (human PBMCs): no evidence that ING-B caused cell proliferation
